29 molecules from US12037344B2, “NLRP3 modulators” (INNATE TUMOR IMMUNITY, INC., priority 2018, dated 2024) can be followed below.

The term EC50 denotes the concentration at which the effect is half-maximal.

Counter-ions that a name gives are not always drawn. Like-named read-outs stand apart in the source and are kept apart here.

In one test the target is T1, TLR8 (Homo sapiens, UniProt Q9NR97).
T1 construct: human HEK-Blue cells co-expressing a TLR7 or TLR8 gene
T1 sequence (Q9NR97 27-1041): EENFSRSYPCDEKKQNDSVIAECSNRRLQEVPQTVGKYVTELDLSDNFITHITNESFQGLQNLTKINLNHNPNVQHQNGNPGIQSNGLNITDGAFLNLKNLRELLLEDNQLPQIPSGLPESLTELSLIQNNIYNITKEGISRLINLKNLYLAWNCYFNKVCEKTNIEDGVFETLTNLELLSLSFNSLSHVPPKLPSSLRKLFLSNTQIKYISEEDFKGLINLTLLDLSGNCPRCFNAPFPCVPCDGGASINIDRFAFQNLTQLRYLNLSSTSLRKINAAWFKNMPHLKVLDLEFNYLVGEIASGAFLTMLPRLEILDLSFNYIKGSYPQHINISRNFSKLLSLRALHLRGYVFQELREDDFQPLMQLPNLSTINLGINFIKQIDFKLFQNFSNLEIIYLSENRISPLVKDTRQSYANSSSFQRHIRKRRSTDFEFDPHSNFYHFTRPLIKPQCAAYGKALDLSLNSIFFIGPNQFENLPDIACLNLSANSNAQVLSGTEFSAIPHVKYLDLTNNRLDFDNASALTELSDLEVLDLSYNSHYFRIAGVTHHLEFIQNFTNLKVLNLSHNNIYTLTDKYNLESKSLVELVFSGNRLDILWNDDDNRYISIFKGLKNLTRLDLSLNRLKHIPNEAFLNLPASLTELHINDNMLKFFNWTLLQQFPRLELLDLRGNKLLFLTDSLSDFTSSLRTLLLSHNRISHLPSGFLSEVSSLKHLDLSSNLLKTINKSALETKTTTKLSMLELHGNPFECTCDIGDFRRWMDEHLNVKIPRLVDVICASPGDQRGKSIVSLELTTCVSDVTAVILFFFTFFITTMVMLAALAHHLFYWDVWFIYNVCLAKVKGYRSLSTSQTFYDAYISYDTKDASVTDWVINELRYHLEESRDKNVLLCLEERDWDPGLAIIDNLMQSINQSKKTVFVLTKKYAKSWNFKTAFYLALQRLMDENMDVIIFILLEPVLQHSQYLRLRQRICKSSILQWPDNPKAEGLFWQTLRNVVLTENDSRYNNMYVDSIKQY
The experiment in a line: In vitro human TLR8 binding reporter assay (HEK-Blue, NF-kB/AP1-inducible SEAP). In kind it is cell-based. To be noted: activity range class, read-out: TLR8 Agonist EC50. The essentials:
(§1)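 EC50s come from NF-kB/AP1-driven SEAP secretion in HEK-Blue cells expressing TLR7 or TLR8, measured with Quanti-Blue after an 18 h compound incubation. Maximal response is defined by a 50 μM reference standard.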
(In a reporter assay the amount or activity of a reporter protein is the signal.)

In a further test the test system is THP-1 cells. Nature of the test: Measurement of IL-1β production, hTRF protocol (second alternative procedure), THP-1 cells. In kind it is cell-based, human. To be noted: human, read-out: NLRP3 hILIB EC50. The essentials: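 Compounds, dilution series starting at a final 10 μM, were incubated 2 hours at 37° C with PMA-differentiated THP-1 cells (50 ng/ml overnight; 50,000 cells/well, 2% FBS RPMI). Released IL-1β quantified in supernatant by hTRF kit with 1:40 antibody dilution, 4° C overnight, 665/615 nm ratio.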

The next test concerns the target T2, TLR7 (Homo sapiens, UniProt Q9NYK1).
T2 construct: human HEK-Blue cells co-expressing a TLR7 or TLR8 gene
T2 sequence (Q9NYK1 27-1049): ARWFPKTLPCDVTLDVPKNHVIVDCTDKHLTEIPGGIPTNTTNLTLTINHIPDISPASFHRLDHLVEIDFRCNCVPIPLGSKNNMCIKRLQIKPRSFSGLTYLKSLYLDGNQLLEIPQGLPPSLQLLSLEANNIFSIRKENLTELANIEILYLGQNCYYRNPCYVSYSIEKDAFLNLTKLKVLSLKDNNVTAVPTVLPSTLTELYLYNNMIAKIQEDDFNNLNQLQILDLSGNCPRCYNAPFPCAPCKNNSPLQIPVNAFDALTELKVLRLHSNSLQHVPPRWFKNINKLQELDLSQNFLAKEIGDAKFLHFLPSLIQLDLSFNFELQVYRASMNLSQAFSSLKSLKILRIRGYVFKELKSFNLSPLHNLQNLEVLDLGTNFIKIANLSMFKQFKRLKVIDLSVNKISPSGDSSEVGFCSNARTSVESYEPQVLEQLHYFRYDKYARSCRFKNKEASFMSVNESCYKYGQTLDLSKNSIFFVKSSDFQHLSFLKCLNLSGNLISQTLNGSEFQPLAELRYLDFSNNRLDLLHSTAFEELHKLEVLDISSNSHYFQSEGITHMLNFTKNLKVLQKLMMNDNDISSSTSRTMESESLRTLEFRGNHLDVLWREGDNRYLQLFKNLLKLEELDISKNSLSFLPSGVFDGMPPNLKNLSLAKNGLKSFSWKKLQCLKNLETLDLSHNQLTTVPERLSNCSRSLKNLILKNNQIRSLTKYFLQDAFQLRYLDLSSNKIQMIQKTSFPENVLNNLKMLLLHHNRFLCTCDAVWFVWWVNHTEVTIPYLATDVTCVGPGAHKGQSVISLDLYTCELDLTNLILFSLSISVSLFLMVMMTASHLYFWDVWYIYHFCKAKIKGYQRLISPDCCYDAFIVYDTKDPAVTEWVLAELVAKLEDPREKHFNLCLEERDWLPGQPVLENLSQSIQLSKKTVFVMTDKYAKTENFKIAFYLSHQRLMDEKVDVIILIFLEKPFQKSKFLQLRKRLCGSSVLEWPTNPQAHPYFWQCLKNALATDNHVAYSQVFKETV
The experiment in a line: In vitro human TLR7 binding reporter assay (HEK-Blue, NF-kB/AP1-inducible SEAP). To be noted: activity range class, read-out: TLR7 Agonist EC50. In kind it is cell-based. The essentials:
as §1

Where [1] appears, read: Homo sapiens, THP-1, IL-1β production.

With `COC1CN(CCn2cc3c(N)nc4cc(-c5ccn[nH]5)ccc4c3n2)C1` [Example 268], the half-maximal effective concentration (EC50) at TLR8 is > 100 µM; in the test on THP-1 cells (setting [1]), 4.5 µM; on TLR7, > 100 µM.

On to `CC(=O)N1CCOCC1Cn1cc2c(N)nc3cc(-c4ccn[nH]4)ccc3c2n1` (stereo not drawn) [Example 269], for which the concentration giving a half-maximal response (EC50) at TLR8 is > 100 µM; in the test with THP-1 cells (setting [1]), 4.38 µM; on TLR7, > 100 µM.

Regarding `CC(Cn1cc2c(N)nc3cc(-c4ccn[nH]4)ccc3c2n1)NC(=O)C(C)(C)C#N` (stereo not drawn) [Example 270], the concentration giving a half-maximal response (EC50) is > 100 µM at TLR8, 5.18 µM in the test with THP-1 cells (setting [1]) and > 100 µM on TLR7.

With `Nc1nc2cc(-c3ccn[nH]3)ccc2c2nn(CCN3CCC3)cc12` [Example 271], the figures for the half-maximal effective concentration (EC50) at TLR8, with THP-1 cells (setting [1]) and at TLR7 were > 100 µM, 1.07 µM and > 100 µM, respectively.

On to `CCN(CCn1cc2c(N)nc3cc(-c4ccn[nH]4)ccc3c2n1)C(C)=O` [Example 272], for which the EC50 was > 100 µM on TLR8, 5.13 µM in the test on THP-1 cells (setting [1]) and > 100 µM at TLR7.

On to `CC(Cn1cc2c(N)nc3cc(-c4ccn[nH]4)ccc3c2n1)NC(=O)C(C)(C)F` (stereo not drawn) [Example 273], for which the EC50 on TLR8 is > 100 µM; in the test on THP-1 cells (setting [1]), 5.16 µM; at TLR7, > 100 µM.

Take `CCN1CCCC1Cn1cc2c(N)nc3cc(-c4ccn[nH]4)ccc3c2n1` (stereo not drawn) [Example 274]: the EC50 is > 100 µM at TLR8, 0.6 µM in the test with THP-1 cells (setting [1]) and > 100 µM on TLR7.

`CC(C)NCCn1cc2c(N)nc3cc(-c4ccn[nH]4)ccc3c2n1` [Example 275]: the figures for the EC50 on TLR8, with THP-1 cells (setting [1]) and on TLR7 were > 100 µM, 1.73 µM and > 100 µM, respectively.

Turning to `CC(=O)N1CCN(CCn2cc3c(N)nc4cc(-c5ccn[nH]5)ccc4c3n2)CC1` [Example 276], the EC50 is > 100 µM on TLR8, 31.7 µM in the test on THP-1 cells (setting [1]) and > 100 µM on TLR7.

On to `CNCCn1cc2c(N)nc3cc(-c4ccn[nH]4)ccc3c2n1` [Example 277], for which the EC50 is > 100 µM on TLR8, 2.33 µM with THP-1 cells (setting [1]) and > 100 µM at TLR7.

Take `Nc1nc2cc(-c3ccn[nH]3)ccc2c2nn(CC3CCCN3)cc12` (stereo not drawn) [Example 278]: the concentration giving a half-maximal response (EC50) on TLR8 was > 100 µM; in the test with THP-1 cells (setting [1]), 0.75 µM; at TLR7 it was > 100 µM.

Regarding `CCNCCn1cc2c(N)nc3cc(-c4ccn[nH]4)ccc3c2n1` [Example 279], the EC50 on TLR8 is > 100 µM; with THP-1 cells (setting [1]) it was 1.13 µM; at TLR7, > 100 µM.

With `Nc1nc2cc(-c3ccn[nH]3)ccc2c2nn(CCNC3CCC3)cc12` [Example 280], the EC50 was > 100 µM on TLR8, 1.72 µM in the test on THP-1 cells (setting [1]) and > 100 µM on TLR7.

As to `CC(CCO)n1cc2c(N)nc3cc(-c4ccn[nH]4)ccc3c2n1` (stereo not drawn) [Example 281], the EC50 on TLR8 is > 100 µM; in the test with THP-1 cells (setting [1]) it was 0.24 µM; at TLR7, > 100 µM.

As to `CC(O)Cn1cc2c(N)nc3cc(-c4ccn[nH]4)ccc3c2n1` (stereo not drawn) [Example 282], the EC50 was > 100 µM on TLR8, 0.1 µM with THP-1 cells (setting [1]) and > 100 µM on TLR7.

For the molecule `CC(C)(O)Cn1cc2c(N)nc3cc(-c4ccn[nH]4)ccc3c2n1` [Example 283], the EC50 at TLR8 was > 100 µM; in the test with THP-1 cells (setting [1]), 0.12 µM; at TLR7 it was > 100 µM.

As for `CC(O)CCn1cc2c(N)nc3cc(-c4ccn[nH]4)ccc3c2n1` (stereo not drawn) [Example 284], the concentration for a half-maximal effect (EC50) at TLR8 was > 100 µM; in the test with THP-1 cells (setting [1]) it was 0.25 µM; on TLR7, > 100 µM.

`CC(C)(O)CCn1cc2c(N)nc3cc(-c4ccn[nH]4)ccc3c2n1` [Example 285]: the EC50 at TLR8 was > 100 µM; in the test on THP-1 cells (setting [1]), 0.63 µM; on TLR7 it was > 100 µM.

Take `Nc1nc2cc(-c3ccn[nH]3)ccc2c2cn(CCNC(=O)c3ccccn3)cc12` [Example 286, N-[2-[4-amino-7-(1H-pyrazol-5-yl)-2H-pyrrolo[3,4-c]quinolin-2-yl]ethyl]pyridine-2-carboxamide]: the EC50 was > 100 µM at TLR8, 0.41 µM in the test on THP-1 cells (setting [1]) and > 100 µM on TLR7.

With `CO[C@@H](CO)Cn1cc2c(N)nc3cc(-c4cc[nH]n4)ccc3c2n1` [Example 289, (2R)-3-[4-amino-7-(1H-pyrazol-3-yl)-2H-pyrazolo[4,3-c]quinolin-2-yl]-2-methoxypropan-1-ol, HCl], the EC50 was > 100 µM on TLR8, 0.28 µM in the test on THP-1 cells (IL-1β production) and 1 to 20 µM on TLR7.

Take `CC(=O)NCCn1cc2c(N)nc3cc(-c4cc[nH]n4)ccc3c2n1` [Example 290]: the figures for the EC50 at TLR8, in the test with THP-1 cells (setting [1]) and on TLR7 were > 100 µM, 0.87 µM and > 100 µM, respectively.

Take `N#CC1(C(=O)NCCn2cc3c(N)nc4cc(-c5cc[nH]n5)ccc4c3n2)CC1` [Example 291]: the values for the EC50 on TLR8, in the test on THP-1 cells (setting [1]) and on TLR7 were > 100 µM, 4.65 µM and > 100 µM, respectively.

In the case of `CC(=O)N[C@@H](CO)Cn1cc2c(N)nc3cc(-c4cc[nH]n4)ccc3c2n1` [Example 292], the EC50 on TLR8 is > 100 µM; in the test on THP-1 cells (setting [1]), 0.89 µM; at TLR7 it was > 100 µM.

For the molecule `CC(C)(Cn1cc2c(N)nc3cc(-c4cc[nH]n4)ccc3c2n1)NC(=O)c1ccc(F)cn1` [Example 293], the EC50 was > 100 µM on TLR8, 0.6 µM in the test with THP-1 cells (setting [1]) and > 100 µM on TLR7.

For the molecule `CC(Cn1cc2c(N)nc3cc(-c4ccn[nH]4)ccc3c2n1)NC(=O)c1ccc(F)cn1` (stereo not drawn) [Example 294], the EC50 on TLR8 is > 100 µM; with THP-1 cells (setting [1]) it was 0.43 µM; at TLR7, > 100 µM.

`CC(Cn1cc2c(N)nc3cc(-c4ccn[nH]4)ccc3c2n1)NC(=O)c1cc(F)ccn1` (stereo not drawn) [Example 295]: the values for the EC50 at TLR8, in the test on THP-1 cells (setting [1]) and on TLR7 were > 100 µM, 0.42 µM and > 100 µM, respectively.

On to `COCC(=O)NC(C)Cn1cc2c(N)nc3cc(-c4ccn[nH]4)ccc3c2n1` (stereo not drawn) [Example 296], for which the EC50 was > 100 µM at TLR8, 1.7 µM with THP-1 cells (setting [1]) and > 100 µM at TLR7.

Consider `CCC(=O)NC(C)Cn1cc2c(N)nc3cc(-c4ccn[nH]4)ccc3c2n1` (stereo not drawn) [Example 297], for which the results for the EC50 at TLR8, with THP-1 cells (setting [1]) and on TLR7 were > 100 µM, 2.83 µM and > 100 µM, respectively.

In the case of `CCOCC(=O)NC(C)Cn1cc2c(N)nc3cc(-c4ccn[nH]4)ccc3c2n1` (stereo not drawn) [Example 298], the EC50 at TLR8 was > 100 µM; in the test on THP-1 cells (setting [1]), 4.32 µM; on TLR7 it was > 100 µM.
